# How the values were obtained:
# HTT mRNA = test: Splicing RT-qPCR assay, HTT canonical (CJ) and alternative (AJ) junction mRNA; format: cell-based; conditions: Homo sapiens, A673 or K562 cells, 24 hours; for IC50: decrease in canonical junction mRNA; for AC50: increase in alternative junction mRNA
# How it was run: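 Splice switching was scored by qPCR detection of the new alternative-exon junction (AJ) alongside the canonical junction (CJ). Cell lines A673 or K562 received compound 24 h, top dose 10 uM final.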
# MYB mRNA = test: Gene panel canonical junction qPCR assay, MYB CJ mRNA decrease; format: cell-based, human; conditions: Homo sapiens, canonical junction qPCR, read-out: MYB IC50 (decrease in CJ mRNA levels)
# How it was run: (§1)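 IC50 values describe loss of canonical-junction transcript, fitted by 4-parameter logistic to percent response derived from fixed ΔCt windows. Read-out: RT-qPCR on lysates of compound-treated K562 or A673 cells, probes overlapping the exon junction, ΔΔCt versus housekeeping gene and DMSO control.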
# SMN2 mRNA = test: Gene panel canonical junction qPCR assay, SMN2 CJ mRNA decrease; format: cell-based, human; conditions: Homo sapiens, canonical junction qPCR, read-out: SMN2 IC50 (decrease in CJ mRNA levels)
# How it was run: as §1
# Target C mRNA = test: Gene panel canonical junction qPCR assay, Target C CJ mRNA decrease; format: cell-based; conditions: Homo sapiens, canonical junction qPCR, read-out: Target C IC50 (decrease in CJ mRNA levels)
# How it was run: as §1
SMILES,IC50 (HTT mRNA) [µM],IC50 (MYB mRNA) [nM],IC50 (SMN2 mRNA) [nM],IC50 (Target C mRNA) [µM],AC50 (HTT mRNA) [µM]
Cn1cc2ccc(NC(=O)c3ccc(N4CCNCC4)c4ccnnc34)cc2n1 [Compound 115],> 10,> 10000,> 10000,> 10,> 10
Cc1cn2cc(NC(=O)c3ccc(N4C[C@@H](C)N(O)[C@@H](C)C4)c4nccnc34)cc(F)c2n1 [Compound 355],> 10,100 to 1000,< 100,> 10,1 to 10
C[C@@H]1CN(c2ccc(C(=O)Nc3ccc4nc(N(C)C)oc4c3)c3nccnc23)C[C@H](C)N1 [Compound 290],> 10,1000 to 10000,> 10000,> 10,> 10
Cc1cn2cc(NC(=O)c3ccc(N4CCC(N)(CF)CC4)c4nccnc34)cc(F)c2n1 [Compound 356],1 to 10,1000 to 10000,100 to 1000,> 10,> 10
C[C@@H]1CN(c2ccc(C(=O)Nc3cc(F)c4nc(O)cn4c3)c3nccnc23)C[C@H](C)N1 [Compound 360],> 10,> 10000,1000 to 10000,> 10,> 10
Cc1cn2cc(NC(=O)c3ccc(N4C[C@@H](C)N[C@@H](C)C4)c4nccnc34)cc(Cl)c2n1 [Compound 304],1 to 10,< 100,< 100,> 10,> 10
"Cc1cn2cc(NC(=O)c3ccc(N4CC[C@@H](N(C)C)C4)c4nccnc34)cc(F)c2n1 [Compound 242, 8-[(3R)-3-(dimethylamino)pyrrolidin-1-yl]-N-{8-fluoro-2-methylimidazo[1,2-a]pyridin-6-yl}quinoxaline-5-carboxamide]",> 10,100 to 1000,< 100,> 10,> 10
"Cc1cn2cc(NC(=O)c3ccc(N4CCN[C@H](C5CC5)C4)c4nccnc34)cc(F)c2n1 [Compound 253, 8-[(3R)-3-cyclopropylpiperazin-1-yl]-N-{8-fluoro-2-methylimidazo[1,2-a]pyridin-6-yl}quinoxaline-5-carboxamide]",1 to 10,< 100,< 100,> 10,1 to 10

# Second part, led by results:
IC50 (HTT mRNA) [µM],IC50 (MYB mRNA) [nM],IC50 (SMN2 mRNA) [nM],IC50 (Target C mRNA) [µM],SMILES,AC50 (HTT mRNA) [µM]
1 to 10,< 100,< 100,> 10,"Cc1cn2cc(NC(=O)c3ccc(N4C[C@@H](C)N[C@@H](C5CC5)C4)c4nccnc34)cc(F)c2n1 [Compound 266, 8-((3S,5R)-3-cyclopropyl-5-methylpiperazin-1-yl)-N-(8-fluoro-2-methylimidazo[1,2-a]pyridin-6-yl)quinoxaline-5-carboxamide]",0.1 to 1
1 to 10,< 100,< 100,1 to 10,Cc1cn2cc(NC(=O)c3ccc(N4CCNC(C)(CO)C4)c4nccnc34)cc(F)c2n1 (stereo not drawn) [Compound 368],1 to 10
1 to 10,100 to 1000,< 100,1 to 10,Cc1cn2cc(NC(=O)c3ccc(N4C[C@@H](C)N[C@@H](C)C4)c4cncnc34)cc(F)c2n1 [Compound 302],1 to 10
1 to 10,< 100,< 100,> 10,Cc1cn2cc(NC(=O)c3ccc(N4C[C@@H](C)N[C@H](C)C4)c4nccnc34)cc(F)c2n1 [Compound 312],1 to 10
1 to 10,100 to 1000,< 100,1 to 10,Cc1cn2cc(NC(=O)c3ccc(N4CC(C)NC(C)C4)c4nc(C)c(C)nc34)cc(F)c2n1 (stereo not drawn) [Compound 257],1 to 10
1 to 10,100 to 1000,100 to 1000,1 to 10,Cc1cn2c(C)c(NC(=O)c3ccc(N4C[C@@H](C)N[C@@H](C)C4)c4nccnc34)cc(F)c2n1 [Compound 285],1 to 10
1 to 10,100 to 1000,< 100,1 to 10,"COc1ccc2c(N3C[C@@H](C)N[C@@H](C)C3)ccc(C(=O)Nc3cc(F)c4nc(C)cn4c3)c2n1 [Compound 268, 5-[(3R,5S)-3,5-dimethylpiperazin-1-yl]-N-{8-fluoro-2-methylimidazo[1,2-a]pyridin-6-yl}-2-methoxyquinoline-8-carboxamide]",1 to 10

# Source: patent US20240409536A1, “COMPOUNDS AND METHODS FOR MODULATING SPLICING” (REMIX THERAPEUTICS INC., priority 2021, published 2024)
